One data set concerns superoxide anion. Briefly: Direct superoxide anion scavenging by EPR spectroscopy (DEPMPO spin-trap) in PMA-stimulated isolated human neutrophils. The class given is cell-based. On the procedure: Leukocyte Isolation and Preparation. Human polymorphonuclear leukocytes (PMNs) were isolated from freshly sampled venous blood of a single volunteer by Percoll density gradient centrifugation as described previously. Briefly, each 10 mL of whole blood was mixed with 0.8 mL of 0.1 M EDTA and 25 mL of saline. The diluted blood was then layered over 9 mL of Percoll at a specific density of 1.080 g/mL. After centrifugation at 400×g for 20 min at 20° C., the plasma, mononuclear cell, and Percoll layers were removed. Erythrocytes were subsequently lysed by addition of 18 mL of ice-cold water for 30 s, followed by 2 mL of 10× PIPES buffer (25 mM PIPES, 110 mM NaCl, and 5 mM KCl, titrated to pH 7.4 with NaOH). Cells were then pelleted at 4° C., the supernatant was decanted, and the procedure was repeated. After the second hypotonic cell lysis, cells were washed twice with PAG buffer [PIPES buffer containing 0.003% human serum albumin (HSA) and 0.1% glucose]. Afterward, PMNs were counted by light microscopy on a hemocytometer. The isolation yielded PMNs with a purity of >95%. The final pellet was then suspended in PAG-CM buffer (PAG buffer with 1 mM CaCl2 and 1 mM MgCl2). EPR Measurements. All EPR measurements were performed using a Bruker ER 300 EPR spectrometer operating at X-band with a TM110 cavity as previously described. The microwave frequency was measured with a Model 575 microwave counter (EIP Microwave, Inc., San Jose, Calif.). To measure superoxide anion (O2) generation from phorbol-ester (PMA)-stimulated PMNs, EPR spin-trapping studies were performed using the spin trap DEPMPO (Oxis, Portland, Oreg.) at 10 mM. 1×10^6 PMNs were stimulated with PMA (1 ng/mL) and loaded into capillary tubes for EPR measurements. To determine the radical scavenging ability of 3 and 9 in aqueous and ethanolic formulations, PMNs were pre-incubated for 5 minutes with test compound, followed by PMA stimulation.
Instrument settings used in the spin-trapping experiments were as follows: modulation amplitude, 0.32 G; time constant, 0.16 s; scan time, 60 s; modulation frequency, 100 kHz; microwave power, 20 milliwatts; and microwave frequency, 9.76 GHz. The samples were placed in a quartz EPR flat cell, and spectra were recorded. The component signals in the spectra were identified and quantified as reported previously.

Data set [1] is classed as physicochemical. As to the method:
Determination of aqueous solubility/dispersibility. 30.13 mg of 3 was added to 1 mL of USP-purified water. The sample was rotated for 2 hours, then centrifuged for 5 minutes. […] A 125-μL aliquot of the solution was then diluted to 25 mL. The sample was analyzed by UV/Vis spectroscopy at 436 nm, and the absorbance was compared to a standard curve compiled from 4 standards of known concentration.
The sample was rotated for 2 hours, then centrifuged for 5 minutes. […] A 125-μL aliquot of the solution was then diluted to 25 mL. The sample was analyzed by UV/Vis spectroscopy at 411 nm, and the absorbance was compared to a standard curve compiled from 4 standards of known concentration.

The target in data set [2] is human serum albumin (HSA) (Homo sapiens, UniProt P02768). Briefly: Plasma-protein binding studies in vitro.

Bounds are passed on as bounds.

human serum albumin (HSA), sequence (P02768 25-609): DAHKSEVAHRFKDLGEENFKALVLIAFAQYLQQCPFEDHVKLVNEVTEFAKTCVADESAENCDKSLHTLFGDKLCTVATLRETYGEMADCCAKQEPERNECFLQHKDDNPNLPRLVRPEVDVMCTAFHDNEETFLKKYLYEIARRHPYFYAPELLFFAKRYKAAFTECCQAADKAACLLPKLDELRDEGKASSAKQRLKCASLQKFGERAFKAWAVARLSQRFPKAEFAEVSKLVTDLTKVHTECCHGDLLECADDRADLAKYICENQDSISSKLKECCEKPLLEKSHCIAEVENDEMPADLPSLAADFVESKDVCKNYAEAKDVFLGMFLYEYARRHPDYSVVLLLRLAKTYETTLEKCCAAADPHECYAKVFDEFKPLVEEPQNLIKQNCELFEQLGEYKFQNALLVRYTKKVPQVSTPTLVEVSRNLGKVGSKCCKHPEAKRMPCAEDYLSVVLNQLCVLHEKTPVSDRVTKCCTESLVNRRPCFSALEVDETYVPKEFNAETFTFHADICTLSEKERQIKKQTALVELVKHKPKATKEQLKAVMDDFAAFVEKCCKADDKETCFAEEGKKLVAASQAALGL

For “3,3′-Diphosphoryloxy-β,ε-carotene sodium salt [compound 9]”, the “Mean (% inhibition) of superoxide anion signal” value (from here on “Mean (% inhibition)”) with superoxide anion (0.1 mM, 40% EtOH (EtOH vehicle alone 5%), listed as Lutein Diphosphate Sodium Salt, sodium salt) stood at 18.0%; with superoxide anion (0.1 mM, 40% EtOH (EtOH vehicle alone 5%), listed as disodium diphosphate derivative of natural source lutein, sodium salt), 18%; with superoxide anion (0.1 mM, Water, listed as disodium diphosphate derivative of natural source lutein, sodium salt), 0%; in the data set on superoxide anion (1.0 mM, Water), 9.3%; in the data set on superoxide anion (3.0 mM, Water), 72.3%; in the data set on superoxide anion (5.0 mM, Water, listed as Lutein Diphosphate Sodium Salt, sodium salt) it was 91.0%. The “Mean (% inhibition)” value with superoxide anion (5.0 mM, Water, listed as disodium diphosphate derivative of natural source lutein, sodium salt) was “more than 90%”. In addition, the “increase in dispersibility of diphosphate salt over disuccinate sodium salt” value in data set [1] was more than 10 fold.
As for `CC1=C(/C=C/C(C)=C/C=C/C(C)=C/C=C/C=C(C)/C=C/C=C(C)/C=C/C2=C(C)C(=O)[C@@H](O)CC2(C)C)C(C)(C)C[C@H](O)C1=O` [astaxanthin, reference compound], the “water solubility” value in data set [1] is given as “insoluble in water”.
Regarding `CC(C=CC=C(C)C=CC1=C(C)C(=O)C(OC(=O)CCC(=O)[O-])CC1(C)C)=CC=CC=C(C)C=CC=C(C)C=CC1=C(C)C(=O)C(OC(=O)CCC(=O)[O-])CC1(C)C.[Na+].[Na+]` [meso-(3R,3′S)-disodium disuccinate astaxanthin], the “binding to human serum albumin” value in data set [2] is “bound immediately and preferentially to human serum albumin (HSA)”.
Take “β,ε-carotenyl 3,3′-disuccinate sodium salt [compound 3]”: the “Mean (% inhibition)” value was 5.0% in the data set with superoxide anion (0.1 mM, 40% EtOH (EtOH vehicle alone 5%), listed as Lutein Disuccinate Sodium Salt, sodium salt); “did not significantly increase scavenging” in the data set on superoxide anion (0.1 mM, 40% EtOH (EtOH vehicle alone 5%), listed as disodium disuccinate derivative of natural source lutein, sodium salt); 0% with superoxide anion (0.1 mM, Water); 13.0% in the data set with superoxide anion (1.0 mM, Water); 61.7% in the data set on superoxide anion (3.0 mM, Water); 74.7% in the data set with superoxide anion (5.0 mM, Water, listed as Lutein Disuccinate Sodium Salt, sodium salt). Further, the “Mean (% inhibition)” value is given as approximately 75% with superoxide anion (5.0 mM, Water, listed as disodium disuccinate derivative of natural source lutein, sodium salt) and 75% in the data set with superoxide anion (5.0 mM, Water, listed as disuccinate lutein sodium salt, sodium salt). Also, the “Aqueous dispersibility (concentration of supernatant)” value in data set [1] (2 h) is 2.85 mg/mL.

Source of the values: US7691901B2, “Carotenoid analogs or derivatives for the inhibition and amelioration of inflammation” (Cardax Pharmaceuticals Inc., priority 2004, dated 2010).
